Test results published in patent publication US20030186997A1, “2,5-Dihydro-pyrazolo[3,4-d]pyrimidin-4-ones with an anticonsulsive action and methods for producing the same” (priority 2000, published 2003).

Assays:
maximal electroshock [1] = assay: Anticonvulsant action, maximal electroshock (MES), mouse i.p.; assay type: in vivo; conditions: ip, read-out: Action in % of the protected animals
Method: (§1) The compounds according to the invention were tested for their anticonvulsant action in vivo after i.p. administration to mice according to the international customary standard (Pharmac. Weekblad, Sc. Ed. 14, 132 (1992) and Antiepileptic Drugs, Third Ed., Raven Press, New York 1989) (Table 1). [table]

s.c. pentetrazole = assay: Anticonvulsant action, s.c. pentetrazole (PTZ), mouse i.p.; assay type: in vivo; conditions: ip, read-out: Action in % of the protected animals
Method: as §1

[2] = Octanol/water partition coefficient; assay type: physicochemical
maximal electroshock [3] = assay: Maximal electroshock in the rat, p.o.; assay type: in vivo; conditions: po
Method: (§2) This compound is also active in convulsion models using bicuculline and picrotoxin as convulsion-inducing cause. Compound 14 (5-(2-methylbenzyl)-2-methyl-2,5-dihydropyrazolo[3,4-d]pyrimidin-4-one) is likewise strongly anticonvulsant with a large therapeutic breadth (ED50 (rat p.o.) =9 mg/kg, NT50>300 mg/kg). Compound 21 has a similar pharmacological profile (ED50 (rat p.o.) =3 mg/kg, NT50>300 mg/kg).

Neurotoxicity (NT50) = assay type: in vivo; conditions: rat
Method: as §2

bicuculline = assay: Convulsion model using bicuculline; assay type: in vivo; conditions: bicuculline as convulsion-inducing cause
Method: as §2

picrotoxin = assay type: in vivo
Method: as §2

Row | Compound | responders at 30 mg/kg (maximal electroshock [1]) | responders at 100 mg/kg (s.c. pentetrazole) | logP [2] | ED50 (maximal electroshock [3]) | melting point | NT50 (neurotoxicity) (Neurotoxicity (NT50)) | activity in convulsion model (bicuculline) | activity in convulsion model (picrotoxin) | responders at 100 mg/kg (maximal electroshock [1]) | responders at 300 mg/kg (s.c. pentetrazole)
1 | Cc1ccccc1Cn1cnc2nn(C)cc2c1=O [Compound 14, 5-(2-methylbenzyl)-2-methyl-2,5-dihydropyrazolo[3,4-d]-pyrimidin-4-one] | 100% | 80% | 1.76 | 9 mg/kg | 185 to 186 °C | – | – | – | – | –
2 | O=c1c2c[nH]nc2ncn1Cc1ccccc1Cl [Compound 1, 5-(2-chlorobenzyl)-2,5-dihydropyrazolo[3,4-d]pyrimidin-4-one] | 100% | 80% | 1.14 | 18 mg/kg | 186 to 187 °C | > 500 mg/kg | active | active | – | –
3 | CCn1cc2c(=O)n(Cc3c(F)cccc3F)cnc2n1 [Compound 37, 5-(2,6-difluorobenzyl)-2-ethyl-2,5-dihydropyrazolo[3,4-d]-pyrimidin-4-one] | – | – | 1.43 | – | 185 to 187 °C | – | – | – | 80% | 20%
4 | Cn1cc2c(=O)n(Cc3c(F)cccc3F)cnc2n1 [Compound 21, 5-(2,6-difluorobenzyl)-2-methyl-2,5-dihydropyrazolo[3,4-d]pyrimidin-4-one] | 100% | 80% | 0.67 | 3 mg/kg | 226 to 228 °C | – | – | – | – | –
5 | COc1ccccc1Cn1cnc2nn(C)cc2c1=O [Compound 17, 5-(2-methoxybenzyl)-2-methyl-2,5-dihydropyrazolo[3,4-d]-pyrimidin-4-one] | – | – | 0.92 | – | 160 to 162 °C | – | – | – | 100% | 100%
